Columns and labels:
SARS-CoV-2 = experiment: Inhibition of SARS-CoV-2 replication in Caco-2 cells; type: cell-based; conditions: Severe acute respiratory syndrome coronavirus 2
SARS-CoV-2 D614 strain = experiment: microbe, parasite or virus in culture; type: cell-based; conditions: Severe acute respiratory syndrome coronavirus 2; VeroE6 TMPRSS2 cells; read-out: EC50 against D614 strain
[1] = tested on: SARS-CoV-2 B.1.1.7 strain; experiment: microbe, parasite or virus in culture; type: cell-based; conditions: Severe acute respiratory syndrome coronavirus 2; VeroE6 TMPRSS2 cells; read-out: EC50 against B.1.1.7 strain
[2] = tested on: SARS-CoV-2 B 1.351 strain; experiment: microbe, parasite or virus in culture; type: cell-based; conditions: Severe acute respiratory syndrome coronavirus 2; VeroE6 TMPRSS2 cells; read-out: EC50 against B 1.351 strain
[3] = human, in vivo
clinical = conditions: human, in vivo
in vitro [4] = conditions: African green monkey
in vitro [5] = conditions: human
[6] = 2 g/day oral dose; IC90 against SARS-CoV-2
SARS-CoV = conditions: cited from earlier work
[7] = asthmatic mice, niclosamide in corn oil, I.P. injection; cited from earlier work
TMEM16A = target: T1, TMEM16A (Homo sapiens, UniProt Q5XXA6); conditions: cited from earlier work
T1 sequence (Q5XXA6 1-986): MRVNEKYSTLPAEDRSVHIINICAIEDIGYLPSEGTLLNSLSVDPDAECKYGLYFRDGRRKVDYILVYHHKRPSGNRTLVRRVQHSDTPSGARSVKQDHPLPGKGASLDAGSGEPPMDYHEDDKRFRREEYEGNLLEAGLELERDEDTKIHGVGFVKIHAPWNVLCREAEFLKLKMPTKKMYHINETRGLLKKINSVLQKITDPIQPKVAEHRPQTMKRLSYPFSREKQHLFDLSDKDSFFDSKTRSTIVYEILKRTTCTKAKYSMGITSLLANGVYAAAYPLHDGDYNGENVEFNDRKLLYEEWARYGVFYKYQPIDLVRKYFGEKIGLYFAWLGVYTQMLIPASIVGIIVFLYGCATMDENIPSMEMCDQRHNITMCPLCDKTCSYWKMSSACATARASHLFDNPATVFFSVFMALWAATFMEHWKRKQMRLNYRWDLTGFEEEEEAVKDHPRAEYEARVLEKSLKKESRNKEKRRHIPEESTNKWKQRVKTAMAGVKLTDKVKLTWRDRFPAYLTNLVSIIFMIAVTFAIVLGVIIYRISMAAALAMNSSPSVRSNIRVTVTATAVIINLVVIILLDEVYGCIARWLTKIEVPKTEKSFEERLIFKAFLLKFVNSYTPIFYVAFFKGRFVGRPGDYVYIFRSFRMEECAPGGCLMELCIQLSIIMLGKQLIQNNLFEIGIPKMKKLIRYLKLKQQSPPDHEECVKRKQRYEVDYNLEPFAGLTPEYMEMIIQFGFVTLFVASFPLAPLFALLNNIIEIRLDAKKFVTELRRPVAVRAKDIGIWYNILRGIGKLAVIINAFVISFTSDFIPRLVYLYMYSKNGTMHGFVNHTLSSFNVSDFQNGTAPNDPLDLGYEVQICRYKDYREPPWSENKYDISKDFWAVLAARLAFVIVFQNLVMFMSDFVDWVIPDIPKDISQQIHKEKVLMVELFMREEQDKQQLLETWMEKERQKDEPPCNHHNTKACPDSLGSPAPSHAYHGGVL

TMEM16F = target: T2, TMEM16F (Homo sapiens, UniProt Q4KMQ2); conditions: cited from earlier work
T2 sequence (Q4KMQ2 1-910): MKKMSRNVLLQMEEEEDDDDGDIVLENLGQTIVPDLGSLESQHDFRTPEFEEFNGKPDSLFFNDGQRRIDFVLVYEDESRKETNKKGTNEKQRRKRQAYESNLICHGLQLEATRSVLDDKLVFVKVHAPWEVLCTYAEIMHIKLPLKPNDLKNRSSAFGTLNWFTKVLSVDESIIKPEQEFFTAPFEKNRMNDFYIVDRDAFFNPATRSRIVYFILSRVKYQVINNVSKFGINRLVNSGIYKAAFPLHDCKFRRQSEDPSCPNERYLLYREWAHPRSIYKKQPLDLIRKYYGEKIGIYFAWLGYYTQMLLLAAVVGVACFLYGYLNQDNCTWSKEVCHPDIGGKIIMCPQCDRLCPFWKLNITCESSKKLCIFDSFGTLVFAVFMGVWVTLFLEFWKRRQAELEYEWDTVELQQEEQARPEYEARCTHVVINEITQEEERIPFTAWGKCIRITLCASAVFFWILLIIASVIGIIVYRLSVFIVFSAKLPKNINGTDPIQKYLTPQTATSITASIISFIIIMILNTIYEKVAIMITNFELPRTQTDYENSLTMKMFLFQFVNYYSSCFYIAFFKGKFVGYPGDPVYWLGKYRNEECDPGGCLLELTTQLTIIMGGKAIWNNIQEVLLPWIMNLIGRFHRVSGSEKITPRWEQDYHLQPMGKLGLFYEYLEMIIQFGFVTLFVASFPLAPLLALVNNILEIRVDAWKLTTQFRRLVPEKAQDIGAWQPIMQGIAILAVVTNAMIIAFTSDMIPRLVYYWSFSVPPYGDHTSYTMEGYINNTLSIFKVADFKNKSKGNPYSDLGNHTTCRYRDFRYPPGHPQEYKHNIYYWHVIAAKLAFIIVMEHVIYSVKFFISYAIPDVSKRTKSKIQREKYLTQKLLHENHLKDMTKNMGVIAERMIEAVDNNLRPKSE

all targeted strains = experiment: Minimum Inhibitory Concentration (MIC) assay, all strains; conditions: read-out: MIC against all targeted strains

| SMILES | EC50 (SARS-CoV-2) | EC50 (SARS-CoV-2 D614 strain) | EC50 [1] | EC50 [2] | peak concentrations in blood (range) [3] | AUC(0-t) (clinical) | Cmax (clinical; maximum plasma concentration (Cmax), mean) | CC50 (in vitro [4]) | CC50 (in vitro [5]) | efficacy margin, mean systemic exposure of human oral dose to IC90 [6] | concentration at which viral antigen synthesis was totally abolished (SARS-CoV) | concentration suppressing cytopathic effect (CPE), as low as (SARS-CoV) | effect on mucus production and secretion and bronchoconstriction [7] | inhibition of TMEM16A (TMEM16A) | inhibition of TMEM16F (TMEM16F) | MIC (all targeted strains) |
| --- | --- | --- | --- | --- | --- | --- | --- | --- | --- | --- | --- | --- | --- | --- | --- | --- |
| O=C(Nc1ccc([N+](=O)[O-])cc1Cl)c1cc(Cl)ccc1O [niclosamide ethanolamine] | 80 nM | 130 nM | 80 nM | 70 nM | 29 to 506 ng/mL | 509 ng·h/mL | 239 ng/mL | > 10 µM | > 10 µM |  |  |  |  |  |  |  |
| O=C(Nc1ccc([N+](=O)[O-])cc1Cl)c1cc(Cl)ccc1O [niclosamide, 5-chloro-N-(2-chloro-4-nitrophenyl)-2-hydroxybenzamide] |  |  |  |  |  |  |  |  |  | 8 fold | 1.56 μm | 1 μm | reduced mucus production and secretion, as well as bronchoconstriction | potent inhibitor | potent inhibitor | ≤ 0.5 µg/mL |
